Publication PMC1142193 (Evidence-based Complementary and Alternative Medicine, 2005)
Entries after “also recorded” stand apart in the source; their conditions may differ.

Target: SARS-CoV 3CL^Pro (Severe acute respiratory syndrome coronavirus, UniProt P0C6U8)
Experiment: biochemical
Type: biochemical
Settings: for IC50: IC50, inhibition of SARS 3CL^Pro activity

In the case of `Cn1c(=O)c2c(ncn2C)n(C)c1=O` [Caffeine, caffeine, reference compound], the “Inhibition of 3CL^Pro activity (in words)” value is reported as “did not inhibit; also recorded: did not influence 3CL^Pro activity” and the “Inhibition of 3CL^Pro activity at concentrations up to 100 µM (in words)” value (from here on “Inhibition … to 100 µM (in words)”) is reported as “not able to inhibit”.

`Oc1cc(O)c2c(c1)O[C@H](c1cc(O)c(O)c(O)c1)[C@H](O)C2` [EGC, epigallocatechin] was tested, and the “Inhibition of 3CL^Pro activity (in words)” value was “did not inhibit”, the “Inhibition … to 100 µM (in words)” value was “not able to inhibit” and the IC50 was at least 100 µM.

For `Oc1cc(O)c2c(c1)O[C@H](c1ccc(O)c(O)c1)[C@H](O)C2` [EC, epicatechin], the “Inhibition of 3CL^Pro activity (in words)” value was “did not inhibit”, the “Inhibition … to 100 µM (in words)” value was “not able to inhibit” and the IC50 was at least 100 µM.

With `O=C(O[C@@H]1Cc2c(O)cc(O)cc2O[C@@H]1c1ccc(O)c(O)c1)c1cc(O)c(O)c(O)c1` [ECg, epicatechin gallate] the “Inhibition of 3CL^Pro activity (in words)” value was “did not inhibit”, the “Inhibition … to 100 µM (in words)” value was “not able to inhibit” and the IC50 was at least 100 µM.

For `Cn1c(=O)c2[nH]cnc2n(C)c1=O` [Theophylline, theophylline, reference compound], the “Inhibition of 3CL^Pro activity (in words)” value was “did not inhibit; also recorded: did not influence 3CL^Pro activity” and the “Inhibition … to 100 µM (in words)” value was “not able to inhibit”.

With `O=c1c(O)cc([C@H]2Oc3cc(O)cc(O)c3C[C@H]2O)cc2c([C@H]3Oc4cc(O)cc(O)c4C[C@H]3O)cc(O)c(O)c12` [TF1, Theaflavin] the “Inhibition of 3CL^Pro activity (in words)” value was “found to inhibit 3CL^Pro” and the IC50 was 56 µM.
